# Experimental data: ChEMBL document CHEMBL4177682, “Indirubin derivatives protect against endoplasmic reticulum stress-induced cytotoxicity and down-regulate CHOP levels in HT22 cells” (Bioorg Med Chem Lett, 2017)
# Active and inactive are the calls of the source. No cut-off for these calls is given here.
# How the values were obtained:
# HT-22 [1] = assay: Suppression of TM-induced increase in CHOP expression in mouse HT22 cells at 20 uM after 12 hrs by Western blot analysis; type: functional, cell-based
# HT-22 [2] = assay: Cytoprotective activity against tunicamycin-induced cell death in mouse HT22 cells after 24 hrs by MTT assay; type: functional, cell-based; conditions: for EC50: HT-22, 24 h
# HT-22 [3] = assay: Effect on CHOP expression in mouse HT22 cells at 20 uM after 12 hrs by Western blot analysis; type: cell-based; conditions: ht-22, 12 h
# HT-22 [4] = assay: Cytoprotective activity against tunicamycin-induced cell death in mouse HT22 cells assessed as preservation of spindle shape morphology after 24 hrs by MTT assay; type: functional, cell-based
# HT-22 [5] = assay: Cytoprotective activity against tunicamycin-induced cell death in mouse HT22 cells at 20 uM after 24 hrs by MTT assay; type: functional, cell-based
# HT-22 [6] = assay: Cytotoxicity against mouse HT22 cells at 20 uM after 24 hrs by MTT assay; type: cell-based; conditions: ht-22, 24 h
Structure (SMILES),Activity (HT-22 [1]),Activity (HT-22 [2]),EC50 (HT-22 [2]) [µM],Activity (HT-22 [3]),Activity (HT-22 [4]),Activity (HT-22 [5]),Activity (HT-22 [6])
O=C1Nc2ccc(Br)cc2/C1=C1/Nc2ccccc2C1=O,Active,Dose-dependent effect,36,Non-Toxic,Active,Active,Non-Toxic
O=C1Nc2ccccc2/C1=C1/Nc2ccccc2/C1=N\O,–,Dose-dependent effect,–,–,–,Active,Toxic
CCc1ccc2c(c1)C(=O)/C(=C1/C(=O)Nc3ccccc31)N2,Active,Dose-dependent effect,24.5,Non-Toxic,Active,Active,Non-Toxic
COc1cccc2c1NC(=O)/C2=C1\Nc2ccccc2\C1=N/O,–,Dose-dependent effect,–,–,–,Active,–
CC(C)c1ccc2c(c1)/C(=C1/Nc3ccccc3C1=O)C(=O)N2,–,Dose-dependent effect,–,–,–,–,–
CC(C)(C)c1ccc2c(c1)/C(=C1/Nc3ccccc3/C1=N\O)C(=O)N2,–,Dose-dependent effect,–,–,–,Active,–
COc1ccc2c(c1)/C(=C1/Nc3ccc(OC)cc3/C1=N\O)C(=O)N2,–,Dose-dependent effect,–,–,–,–,–
COc1ccc2c(c1)C(=N\O)/C(=C1/C(=O)Nc3ccccc31)N2,–,Dose-dependent effect,–,–,–,Active,–
O=C1Nc2ccc(Br)cc2/C1=C1/Nc2ccc(Br)cc2C1=O,Active,Dose-dependent effect,21.3,Non-Toxic,Active,Active,Non-Toxic
Cc1ccc2c(c1)/C(=C1/Nc3ccccc3/C1=N\O)C(=O)N2,–,Dose-dependent effect,–,–,–,Active,–
COc1ccc2c(c1)C(=O)/C(=C1/C(=O)Nc3ccc(OC)cc31)N2,Active,Dose-dependent effect,30,Non-Toxic,Active,Active,Non-Toxic
O=C1Nc2ccccc2/C1=C1/Nc2ccc(Br)cc2C1=O,–,Dose-dependent effect,–,–,–,–,–
O=C1Nc2ccc(Br)cc2/C1=C1/Nc2ccccc2/C1=N\O [INDIRUBIN 2],Active,Dose-dependent effect,85.8,Non-Toxic,Active,Active,Non-Toxic
COc1cccc2c1NC(=O)/C2=C1\Nc2ccccc2C1=O,–,Dose-dependent effect,–,–,–,–,–
O=C1Nc2ccccc2/C1=C1/Nc2ccccc2C1=O [INDIRUBIN],–,Dose-dependent effect,–,–,–,–,Toxic
COc1ccc2c(c1)NC(=O)/C2=C1\Nc2ccccc2C1=O,–,Dose-dependent effect,–,–,–,–,–
COc1ccc2c(c1)/C(=C1/Nc3ccccc3/C1=N\O)C(=O)N2,–,Dose-dependent effect,–,–,–,Active,–
O=C1Nc2ccccc2/C1=C1/Nc2ccc(Br)cc2/C1=N\O,–,Dose-dependent effect,–,–,–,Active,–
CCc1ccc2c(c1)/C(=C1/Nc3ccccc3C1=O)C(=O)N2,–,Dose-dependent effect,–,–,–,–,–
COc1ccc2c(c1)N/C(=C1\C(=O)Nc3ccccc31)C2=O,–,Dose-dependent effect,–,–,–,–,–
O=C1Nc2ccccc2/C1=C1/Nc2cc(Br)ccc2C1=O,–,Dose-dependent effect,–,–,–,–,–
COc1ccc2c(c1)NC(=O)/C2=C1\Nc2ccccc2\C1=N/O,–,Dose-dependent effect,–,–,–,Active,–

Structure (SMILES),Activity (HT-22 [1]),Activity (HT-22 [2]),EC50 (HT-22 [2]) [µM],Activity (HT-22 [3]),Activity (HT-22 [4]),Activity (HT-22 [5]),Activity (HT-22 [6])
CN1C(=O)/C(=C2\Nc3ccccc3\C2=N/O)c2ccc(Br)cc21,–,Dose-dependent effect,–,–,–,Active,–
O=C(O)Cc1ccc2c(c1)/C(=C1/Nc3ccccc3C1=O)C(=O)N2,–,Dose-dependent effect,–,–,–,–,–
O=C1Nc2ccc(O)cc2/C1=C1/Nc2ccccc2C1=O,–,Dose-dependent effect,–,–,–,–,–
COc1ccc2c(c1)/C(=C1/Nc3ccccc3C1=O)C(=O)N2,–,Dose-dependent effect,–,–,–,–,–
Cc1ccc2c(c1)/C(=C1/Nc3ccccc3C1=O)C(=O)N2,Active,Dose-dependent effect,30.8,Non-Toxic,Active,Active,Non-Toxic
O=C1Nc2ccccc2/C1=C1/Nc2ccccc2/C1=N\OCC1CO1 (stereo not given),–,Dose-dependent effect,–,–,–,–,–
Cc1ccc2c(c1)C(=O)/C(=C1/C(=O)Nc3ccccc31)N2,–,Dose-dependent effect,–,–,–,–,–
O=C1Nc2c(O)cccc2/C1=C1/Nc2ccccc2C1=O,–,Dose-dependent effect,–,–,–,–,–
O=C1Nc2c(Br)cccc2/C1=C1/Nc2ccccc2C1=O,–,–,–,–,–,inactive,–
CC(=O)N1C(=O)/C(=C2\Nc3ccccc3C2=O)c2ccccc21,Active,Dose-dependent effect,9.8,Non-Toxic,Active,Active,Non-Toxic
O=C1Nc2cc(O)ccc2/C1=C1/Nc2ccccc2C1=O,Active,Dose-dependent effect,23.7,Non-Toxic,Active,Active,Non-Toxic
O=C1Nc2cc(Br)ccc2/C1=C1/Nc2ccccc2C1=O,–,–,–,–,–,inactive,–
CN1C(=O)/C(=C2\Nc3ccccc3C2=O)c2ccc(Br)cc21,–,–,–,–,–,inactive,–
CC(C)c1ccc2c(c1)/C(=C1/Nc3ccccc3/C1=N\O)C(=O)N2,–,Dose-dependent effect,–,–,–,Active,–
COc1cc2c(cc1OC)/C(=C1/Nc3ccccc3/C1=N\O)C(=O)N2,–,Dose-dependent effect,–,–,–,Active,–
O=C1Nc2ccccc2/C1=C1/Nc2cc(Br)ccc2/C1=N\O,–,Dose-dependent effect,–,–,–,Active,–
O=C1Nc2cc(Br)ccc2/C1=C1/Nc2ccccc2/C1=N\O [6BIO],–,–,–,–,–,inactive,Toxic
COc1cc2c(cc1OC)/C(=C1/Nc3ccccc3C1=O)C(=O)N2,–,Dose-dependent effect,–,–,–,–,–
CC(C)(C)c1ccc2c(c1)/C(=C1/Nc3ccccc3C1=O)C(=O)N2,–,Dose-dependent effect,–,–,–,–,–
O=C1Nc2ccc(Br)cc2/C1=C1/Nc2ccc(Br)cc2/C1=N\O,–,Dose-dependent effect,–,–,–,Active,Toxic
COc1ccc2c(c1)C(=O)/C(=C1/C(=O)Nc3ccccc31)N2,–,Dose-dependent effect,–,–,–,–,–
CCc1ccc2c(c1)/C(=C1/Nc3ccccc3/C1=N\O)C(=O)N2,–,Dose-dependent effect,–,–,–,Active,–
